Source: patent US12564576B2, “Therapeutic agent for vascular disorder” (NATIONAL UNIVERSITY CORPORATION KUMAMOTO UNIVERSITY, priority 2020, dated 2026)

Tested on: synthesis and secretion of a type IV collagen protein in vascular endothelial cells derived from iPS cells
Assay: Amount of type IV collagen protein released into the medium by iPS-derived vascular endothelial cells (Western blotting)
Assay type: cell-based, human
Conditions: 10 nmol/L digoxin, serum-free medium, 3 days culture; FIG. 3
Description: As the cells, iPS cells derived from healthy adults and patients with scleroderma established at Kumamoto University were used (Zhongzhi Wang, et al., JDS 2016 November; 84(2): 186-196.). Scleroderma is known to cause Raynaud's syndrome, which is one of peripheral vascular disorders, as a symptom of scleroderma, and therefore was employed as a vascular disorder model cell.
Differentiation induction into vascular endothelial cells was performed by culturing iPS cells derived from healthy adults and patients with scleroderma under the conditions described in Table 1.
As the obtained cells, only cells positive for VE-cadherin (CD144) and PECAM-1 (CD31), which are vascular endothelial cell markers, were sorted using flow cytometry. From the morphology of the sorted cells and the expression of the marker genes, it was confirmed that the sorted cells were vascular endothelial cells. […]
In the above (1), using the cell supernatant cultured in the serum-free medium, the amount of a type IV collagen protein released into the medium was quantified by the following method.
First, proteins released into the medium were concentrated. […] After removal of ethanol, the precipitate was dried and dissolved in an RIPA buffer, and each sample was adjusted to have a protein concentration of 1 mg/ml using a protein quantification reagent (Bradford Protein Assay, manufactured by Bio-Rad Laboratories, Inc.). […]

Structure (SMILES): C[C@H]1O[C@@H](O[C@H]2[C@@H](O)C[C@H](O[C@H]3[C@@H](O)C[C@H](O[C@H]4CC[C@@]5(C)[C@H](CC[C@@H]6[C@@H]5C[C@@H](O)[C@]5(C)[C@@H](C7=CC(=O)OC7)CC[C@]65O)C4)O[C@@H]3C)O[C@@H]2C)C[C@H](O)[C@@H]1O [digoxin]
- amount of a type IV collagen protein in the medium: hardly reduced
